Reference: patent US20260376293A1, “METHODS FOR STUDYING GPR158 PHARMACOLOGY AND IDENTIFICATION OF ITS LIGANDS” (UNIVERSITY OF FLORIDA RESEARCH FOUNDATION, INCORPORATED, priority 2022, published 2026)

Target: T1, GPR158 S266A mutant (Homo sapiens, UniProt Q5T848, S266A)
T1 construct: RGS7/Gβ5 co-expressed in the GAP BRET row only
T1 sequence (Q5T848 24-1215 S266A): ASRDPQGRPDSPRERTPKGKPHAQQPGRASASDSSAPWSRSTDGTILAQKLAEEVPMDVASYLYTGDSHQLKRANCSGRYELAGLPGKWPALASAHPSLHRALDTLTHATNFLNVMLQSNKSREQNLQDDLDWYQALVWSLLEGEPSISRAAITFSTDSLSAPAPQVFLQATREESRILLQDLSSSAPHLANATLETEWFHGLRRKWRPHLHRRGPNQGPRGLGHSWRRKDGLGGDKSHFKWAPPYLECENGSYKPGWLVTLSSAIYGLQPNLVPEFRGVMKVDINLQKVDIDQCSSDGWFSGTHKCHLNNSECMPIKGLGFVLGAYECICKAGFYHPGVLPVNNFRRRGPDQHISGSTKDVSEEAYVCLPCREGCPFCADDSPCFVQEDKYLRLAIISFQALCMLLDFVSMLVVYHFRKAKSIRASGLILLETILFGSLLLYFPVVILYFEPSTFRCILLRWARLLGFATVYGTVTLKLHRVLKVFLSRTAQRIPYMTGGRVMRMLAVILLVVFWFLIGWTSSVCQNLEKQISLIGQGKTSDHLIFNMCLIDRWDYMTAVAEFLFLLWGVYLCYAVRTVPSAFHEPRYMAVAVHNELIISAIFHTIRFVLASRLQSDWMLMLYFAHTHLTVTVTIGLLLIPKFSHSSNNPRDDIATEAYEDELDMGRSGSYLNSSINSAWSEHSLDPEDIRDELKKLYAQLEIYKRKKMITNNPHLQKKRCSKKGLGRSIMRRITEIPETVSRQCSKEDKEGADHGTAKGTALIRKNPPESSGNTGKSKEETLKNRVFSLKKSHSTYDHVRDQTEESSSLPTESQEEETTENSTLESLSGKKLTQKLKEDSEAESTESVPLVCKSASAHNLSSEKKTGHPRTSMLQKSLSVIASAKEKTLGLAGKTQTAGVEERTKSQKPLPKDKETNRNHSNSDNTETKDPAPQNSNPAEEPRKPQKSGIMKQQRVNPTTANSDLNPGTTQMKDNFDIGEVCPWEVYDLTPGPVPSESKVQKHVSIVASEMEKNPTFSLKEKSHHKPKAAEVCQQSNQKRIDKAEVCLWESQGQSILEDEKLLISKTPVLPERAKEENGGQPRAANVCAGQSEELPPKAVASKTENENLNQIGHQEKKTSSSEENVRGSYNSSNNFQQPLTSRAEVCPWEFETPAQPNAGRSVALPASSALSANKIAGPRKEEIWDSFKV
Assay: Radioligand binding assay on GPR158 mutant S266A
Excerpt: FIGS. 11A-11G. Probing Cache domain of GPR158 as a ligand binding site A) Computational docking of glycine into putative ligand binding pocket on GPR158 Cache domain. Glycine and directly interacting residues are shown as sticks. Hydrogen bonds and van der Waals interactions are shown as dotted lines. B) Diagram showing interactions in the docked model of glycine against GPR158 Cache domain. Hydrogen bonds are shown as dashed lines, van der Waals interactions are shown as intersecting semicircles, and the secondary structural context of Ser266 and Tyr269 is shown as an arc. Dagger indicates a residue implicated in glycine binding in 11A. C) Radioligand binding assay of ^3H-glycine in cells expressing GPR158 mutants. Data shown mean±s.e.m. of 3 independent experiments, *p<0.05, ns=p>0.05 one-way ANOVA. D) Functional evaluation of GPR158 mutants in GAP BRET assay. Error bars are mean±s.e.m. of 3 independent experiments in triplicate. *p<0.05, **p<0.01, ***p<0.001, ****p<0.0001, ns=p>0.05, two-way ANOVA Columns with no fill (Ctrl), columns with angled-line fill (Glycine) E) Quantification of glycine inhibitory effect on kGAP normalized to the effect seen with WT receptor. […]
Whole cell binding was performed using cDNA of GPR158-venus or each GPR158-venus mutant or empty pcDNA3.1+ for ctrl cells. […] Finally radioactivity was measured using the liquid scintillation analyzer Tri-Carb 4910 TR.

NCC(=O)O [glycine]
glycine binding: normally bind glycine
